Data reported in patent US9994555B2, “Chromenone inhibitors of monocarboxylate transporters” (THE SCRIPPS RESEARCH INSTITUTE, priority 2015, dated 2018).
pEC50: −log10 of the molar value.

Tested on: Raji (Burkitt's) lymphoma cells
Assay: MTT assay for 4-day viability of Raji (Burkitt's) lymphoma cells
Type: cell-based
Details: Homo sapiens, 96 h, Raji (Burkitt's) lymphoma cells highly expressing MCT1, estimated EC50 given as bin, read-out: approximate potency (EC50)
Source text: Specific Examples of compounds of the invention, with estimated EC50 values determined using an MTT assay for 4-day viability of Raji (Burkitt's) lymphoma cells, a cell line known to highly express MCT1 and to be sensitive to small molecule MCT inhibitors,^4 are shown in Table 8. Assay protocols follow those described in the literature.^4 Other assays that are not described here but that are standard in the field, such as an assay for competitive inhibition of transport of radiolabeled lactic acid, an MCT substrate, may also be useful in establishing mechanism of action of these compounds.

Structure (SMILES)	pEC50
CC(C)c1cc(=O)c2c(OCc3ccccc3CO)cc(OCc3ccncc3)cc2o1 [Example 15, 5-((2-(hydroxymethyl)benzyl)oxy)-2-isopropyl-7-(pyridin-4-ylmethoxy)-4H-chromen-4-one]	6.00 to 7.00
CC(C)c1cc(=O)c2c(-c3cccc(CO)c3)cc(OCc3cccc4ccccc34)cc2o1 [Example 43, 5-(3-(hydroxymethyl)phenyl)-2-isopropyl-7-(naphthalen-1-ylmethoxy)-4H-chromen-4-one]	6.00 to 7.00
Cc1cc(=O)c2c(OCCCO)cc(OCc3cccc4ccccc34)cc2o1 [Example 2, 5-(3-hydroxypropoxy)-2-methyl-7-(naphthalen-1-ylmethoxy)-4H-chromen-4-one]	5.00 to 6.00
O=c1cc(-c2ccccc2)oc2cc(OCc3cccc4ccccc34)cc(OCCCO)c12 [Example 28, 5-(3-hydroxypropoxy)-7-(naphthalen-1-ylmethoxy)-2-phenyl-4H-chromen-4-one]	5.00 to 6.00
CC(C)c1cc(=O)c2c(-c3cccc(CCO)c3)cc(OCc3cccc4ccccc34)cc2o1 [Example 38, 5-(3-(2-hydroxyethyl)phenyl)-2-isopropyl-7-(naphthalen-1-ylmethoxy)-4H-chromen-4-one]	5.00 to 6.00
CC(C)c1cc(=O)c2c(OCc3ccccc3CO)cc(OCc3cncs3)cc2o1 [Example 18, 5-((2-(hydroxymethyl)benzyl)oxy)-2-isopropyl-7-(thiazol-5-ylmethoxy)-4H-chromen-4-one]	6.00 to 7.00
CC(C)c1cc(=O)c2c(OCc3ccccc3CO)cc(OCc3ccc4ccccc4n3)cc2o1 [Example 20, 5-((2-(hydroxymethyl)benzyl)oxy)-2-isopropyl-7-(quinolin-2-ylmethoxy)-4H-chromen-4-one]	≥ 7.00
CC(C)c1cc(=O)c2c(-c3cc(CO)ccc3F)cc(OCc3cccc4ccccc34)cc2o1 [Example 40, 5-(2-fluoro-5-(hydroxymethyl)phenyl)-2-isopropyl-7-(naphthalen-1-ylmethoxy)-4H-chromen-4-one]	5.00 to 6.00
Cc1cc(=O)c2c(OCCCCO)cc(OCc3cccc4ccccc34)cc2o1 [Example 3, 5-(4-hydroxybutoxy)-2-methyl-7-(naphthalen-1-ylmethoxy)-4H-chromen-4-one]	5.00 to 6.00
Cc1cc(=O)c2c(OCC(O)CO)cc(Oc3ccnc4ccccc34)cc2o1 (stereo not shown) [Example 4, 5-(2,3-dihydroxypropoxy)-2-methyl-7-(quinolin-4-yloxy)-4H-chromen-4-one]	≤ 5.00
